Measurements as given in ChEMBL document CHEMBL4152237, “Identification of novel β-lactams and pyrrolidinone derivatives as selective Histamine-3 receptor (H3R) modulators as possible anti-obesity agents” (Eur J Med Chem, 2018).
Active and inactive are the calls of the source. Unless noted, the rule behind the calls is not given here.

Legend:
[1] = Octanol/water partition co-efficient, log P of the compound after 24 hrs by HPLC based shake-flask method; type: physicochemical
[2] = biological target: T1, Histamine H3 receptor (Homo sapiens, UniProt Q9Y5N1); experiment: (§1) Agonist activity at human H3R expressed in HEK293 cells harboring glosensor-22F cAMP plasmid DNA assessed as inhibition of forskolin-stimulated cAMP accumulation preincubated with cells followed by forskolin addition measured after 10 mins by luminescence assay; type: functional, cell-based
T1 sequence (Q9Y5N1 whole entry): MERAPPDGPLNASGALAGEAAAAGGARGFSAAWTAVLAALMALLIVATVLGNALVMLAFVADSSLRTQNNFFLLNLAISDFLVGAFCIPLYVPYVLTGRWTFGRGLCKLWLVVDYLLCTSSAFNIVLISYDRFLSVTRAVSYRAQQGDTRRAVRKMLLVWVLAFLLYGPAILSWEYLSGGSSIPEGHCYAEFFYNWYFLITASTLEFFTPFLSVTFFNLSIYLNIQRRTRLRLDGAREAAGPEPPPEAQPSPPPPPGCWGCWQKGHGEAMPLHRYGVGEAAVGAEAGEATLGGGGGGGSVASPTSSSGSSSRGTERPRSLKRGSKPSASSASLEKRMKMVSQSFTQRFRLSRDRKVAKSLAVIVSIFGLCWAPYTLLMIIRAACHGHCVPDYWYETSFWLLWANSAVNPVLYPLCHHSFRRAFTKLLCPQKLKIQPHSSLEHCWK

[3] = biological target: T1, Histamine H3 receptor; experiment: as §1, with “accumulation at 1 uM” for “accumulation”, “mins in presence of H3R antagonist GSK334429” for “mins”; type: functional, cell-based
[4] = biological target: T2, 5-hydroxytryptamine receptor 2C (Homo sapiens) (UniProt P28335); experiment: Agonist activity at human 5-HT2C expressed in HEK293 cells harboring luc2P/NFAT-RE plasmid at 10 uM after 6 to 8 hrs by luciferase reporter gene assay; type: functional, cell-based
T2 sequence (whole entry): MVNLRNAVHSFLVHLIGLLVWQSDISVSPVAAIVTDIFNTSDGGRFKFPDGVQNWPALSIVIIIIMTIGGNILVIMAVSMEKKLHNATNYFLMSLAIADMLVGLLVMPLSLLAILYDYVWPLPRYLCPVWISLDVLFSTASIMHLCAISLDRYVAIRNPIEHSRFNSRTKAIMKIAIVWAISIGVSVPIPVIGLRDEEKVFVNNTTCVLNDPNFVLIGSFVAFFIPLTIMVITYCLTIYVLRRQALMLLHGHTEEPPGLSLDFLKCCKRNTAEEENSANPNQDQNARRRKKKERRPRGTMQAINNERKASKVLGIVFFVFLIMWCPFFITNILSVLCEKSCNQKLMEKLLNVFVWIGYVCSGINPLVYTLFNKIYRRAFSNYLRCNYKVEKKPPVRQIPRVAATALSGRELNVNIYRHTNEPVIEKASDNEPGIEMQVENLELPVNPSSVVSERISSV

[5] = biological target: Histamine H1 receptor (Homo sapiens) (UniProt P35367); experiment: Agonist activity at H1R (unknown origin) expressed in HEK293 cells harboring luc2P/NFAT-RE plasmid at 10 uM after 6 to 8 hrs by luciferase reporter gene assay; type: functional, cell-based
Sequence of Histamine H1 receptor (Homo sapiens) (P35367 whole entry): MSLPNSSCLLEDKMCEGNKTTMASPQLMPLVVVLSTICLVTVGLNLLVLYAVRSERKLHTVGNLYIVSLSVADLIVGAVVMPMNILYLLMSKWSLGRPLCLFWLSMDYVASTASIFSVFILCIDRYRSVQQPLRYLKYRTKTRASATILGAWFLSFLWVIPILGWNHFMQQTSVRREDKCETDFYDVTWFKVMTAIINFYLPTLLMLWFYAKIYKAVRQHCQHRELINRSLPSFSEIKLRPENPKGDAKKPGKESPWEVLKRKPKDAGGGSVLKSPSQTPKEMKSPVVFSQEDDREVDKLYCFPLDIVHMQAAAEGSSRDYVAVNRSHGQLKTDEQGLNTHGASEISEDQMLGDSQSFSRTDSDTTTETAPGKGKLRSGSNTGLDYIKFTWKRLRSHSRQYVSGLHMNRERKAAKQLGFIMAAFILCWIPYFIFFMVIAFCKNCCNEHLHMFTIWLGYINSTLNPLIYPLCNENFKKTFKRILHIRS

[6] = biological target: Histamine H2 receptor (Homo sapiens) (UniProt P25021); experiment: Agonist activity at H2R (unknown origin) expressed in HEK293 cells harboring glosensor-22F cAMP plasmid DNA assessed as inhibition of forskolin-stimulated cAMP accumulation at 10 uM preincubated with cells followed by forskolin addition measured after 10 mins by luminescence assay; type: functional, cell-based
Sequence of Histamine H2 receptor (Homo sapiens) (P25021 whole entry): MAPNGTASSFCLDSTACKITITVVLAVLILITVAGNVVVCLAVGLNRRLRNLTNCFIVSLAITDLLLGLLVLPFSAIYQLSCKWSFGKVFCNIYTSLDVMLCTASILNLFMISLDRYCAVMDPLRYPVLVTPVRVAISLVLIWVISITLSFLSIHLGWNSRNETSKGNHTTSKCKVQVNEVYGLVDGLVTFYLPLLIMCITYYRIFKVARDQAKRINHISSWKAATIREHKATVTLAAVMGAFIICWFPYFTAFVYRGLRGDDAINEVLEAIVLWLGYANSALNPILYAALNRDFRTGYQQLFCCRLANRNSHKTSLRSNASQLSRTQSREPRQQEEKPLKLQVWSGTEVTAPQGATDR

[7] = biological target: Histamine H4 receptor (Homo sapiens) (UniProt Q9H3N8); experiment: Agonist activity at H4R (unknown origin) expressed in HEK293 cells harboring glosensor-22F cAMP plasmid DNA assessed as inhibition of forskolin-stimulated cAMP accumulation at 10 uM preincubated with cells followed by forskolin addition measured after 10 mins by luminescence assay; type: functional, cell-based
Sequence of Histamine H4 receptor (Homo sapiens) (Q9H3N8 whole entry): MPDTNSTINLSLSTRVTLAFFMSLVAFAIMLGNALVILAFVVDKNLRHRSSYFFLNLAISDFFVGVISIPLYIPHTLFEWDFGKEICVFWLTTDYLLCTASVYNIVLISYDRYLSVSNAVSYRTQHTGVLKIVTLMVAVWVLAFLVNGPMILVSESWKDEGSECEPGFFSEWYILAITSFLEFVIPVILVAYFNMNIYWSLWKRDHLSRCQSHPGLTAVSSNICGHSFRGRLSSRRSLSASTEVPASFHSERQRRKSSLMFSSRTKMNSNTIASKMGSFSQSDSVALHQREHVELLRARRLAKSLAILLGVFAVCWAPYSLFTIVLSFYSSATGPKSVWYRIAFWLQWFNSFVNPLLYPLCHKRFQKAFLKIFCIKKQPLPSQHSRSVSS

[8] = biological target: Luciferin 4-monooxygenase (Photinus pyralis) (UniProt P08659); experiment: Inhibition of firefly luciferase activity expressed in HEK293 cells assessed as reduction in forskolin-stimulated cAMP accumulation up to 10 uM preincubated with cells followed by forskolin addition measured after 10 mins by luminescence assay; type: cell-based
Sequence of Luciferin 4-monooxygenase (Photinus pyralis) (P08659 whole entry): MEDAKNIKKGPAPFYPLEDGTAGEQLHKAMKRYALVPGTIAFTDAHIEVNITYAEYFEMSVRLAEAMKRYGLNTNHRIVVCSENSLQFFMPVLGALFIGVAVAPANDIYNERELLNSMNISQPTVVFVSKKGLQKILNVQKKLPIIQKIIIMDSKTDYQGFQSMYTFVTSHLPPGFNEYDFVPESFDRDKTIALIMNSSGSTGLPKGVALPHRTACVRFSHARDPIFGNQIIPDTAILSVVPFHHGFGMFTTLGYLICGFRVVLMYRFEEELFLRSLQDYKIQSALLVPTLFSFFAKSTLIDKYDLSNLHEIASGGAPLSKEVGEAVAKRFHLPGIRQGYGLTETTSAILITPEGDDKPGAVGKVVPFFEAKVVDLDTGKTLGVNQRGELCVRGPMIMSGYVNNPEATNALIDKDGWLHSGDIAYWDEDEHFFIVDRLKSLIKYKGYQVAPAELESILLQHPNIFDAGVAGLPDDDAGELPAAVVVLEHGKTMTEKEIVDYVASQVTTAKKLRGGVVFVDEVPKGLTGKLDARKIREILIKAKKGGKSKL

[9] = test system: HEK-293T; experiment: Cytotoxicity against HEK293T cells assessed as reduction in cell viability at 1 to 10 uM after 24 hrs by XTT assay; type: cell-based; conditions: human
[10] = biological target: Histamine H1 receptor (Homo sapiens) (UniProt P35367); experiment: Antagonist activity at H1R (unknown origin) expressed in HEK293 cells harboring luc2P/NFAT-RE plasmid at 10 uM after 6 to 8 hrs by luciferase reporter gene assay; type: functional, cell-based
[11] = biological target: Histamine H2 receptor (Homo sapiens) (UniProt P25021); experiment: Antagonist activity at H2R (unknown origin) expressed in HEK293 cells harboring glosensor-22F cAMP plasmid DNA assessed as effect on forskolin-stimulated cAMP accumulation at 10 uM preincubated with cells followed by forskolin addition measured after 10 mins by luminescence assay; type: functional, cell-based
[12] = biological target: Histamine H4 receptor (Homo sapiens) (UniProt Q9H3N8); experiment: Antagonist activity at H4R (unknown origin) expressed in HEK293 cells harboring glosensor-22F cAMP plasmid DNA assessed as effect on forskolin-stimulated cAMP accumulation at 10 uM preincubated with cells followed by forskolin addition measured after 10 mins by luminescence assay; type: functional, cell-based
[13] = biological target: T2, 5-hydroxytryptamine receptor 2C (Homo sapiens); experiment: Antagonist activity at human 5-HT2C expressed in HEK293 cells harboring luc2P/NFAT-RE plasmid at 10 uM after 6 to 8 hrs by luciferase reporter gene assay; type: functional, cell-based
[14] = test system: Mus musculus; experiment: Anorexic effect in diet-induced obese C57BL/6J mouse assessed as reduction in cumulative food intake at 20 mg/kg, po pretreated for 30 mins followed by food addition measured after 4 hrs; type: functional, organism-based
[15] = test system: Mus musculus; experiment: Anorexic effect in diet-induced obese C57BL/6J mouse assessed as reduction in cumulative food intake at 10 mg/kg, po pretreated for 30 mins followed by food addition measured after 4 hrs; type: functional, organism-based

Compound	logP at 24 h [1]	EC50 ([2]; read-out: EC50)	inhibition [3]	Activity [4]	Activity [5]	inhibition [6]	inhibition [7]	inhibition [8]	Activity [9]	inhibition [10]	inhibition [11]	inhibition [12]	inhibition [13]	Activity [14]	Activity [15]	EC50 ([2]; read-out: pEC50 (converted))
COc1cc(NC2(c3cccc(Cl)c3)C(=O)N(C(C)(C)C)C(=O)/C2=C/c2ccccc2)cc(OC)c1OC (stereo not drawn)	2.96	2.7 nM	inactive	inactive	inactive	inactive	inactive	inactive	Non-Toxic	inactive	inactive	inactive	inactive	Active	inactive	–
O=C1C=CC2(C=C1)C(c1ccccc1)=CC(=O)N2C(C(=O)NC1CCCCC1)c1ccc(Cl)cc1 (stereo not drawn)	3.8	104 nM	inactive	inactive	inactive	inactive	inactive	inactive	Non-Toxic	inactive	inactive	inactive	inactive	–	–	–
COc1ccc(C(C(=O)NC2CCCCC2)N2C(=O)C(c3ccc(C(F)(F)F)cc3)=C(c3ccccc3)C23C=CC(=O)C=C3)c(OC)c1OC (stereo not drawn)	2.74	13 nM	inactive	inactive	inactive	inactive	inactive	inactive	Non-Toxic	inactive	inactive	inactive	inactive	–	–	–
O=C1C=C[C@]23C(c4ccccc4)=CC(=O)N2[C@H](c2ccc([N+](=O)[O-])cc2)C(=O)N[C@@H]3C1	1.78	0.3 nM	inactive	inactive	inactive	inactive	inactive	inactive	Non-Toxic	inactive	inactive	inactive	inactive	–	–	–
COc1ccc(NC2(c3cccc(Cl)c3)C(=O)N(C3CCCCC3)C(=O)/C2=C/c2ccccc2)cc1OC (stereo not drawn)	2.45	2.7 nM	inactive	inactive	inactive	inactive	inactive	inactive	Non-Toxic	inactive	inactive	inactive	inactive	–	–	–
COc1cc(N2C(=O)C(=Cc3ccccc3)C2(C(=O)NC(C)(C)C)c2cc(F)cc(F)c2)cc(OC)c1OC (stereo not drawn)	2.34	0.3 nM	inactive	inactive	inactive	inactive	inactive	inactive	Non-Toxic	inactive	inactive	inactive	inactive	–	–	–
C[C@H]1CNCCc2ccc(Cl)cc21	–	–	–	–	–	–	–	–	–	–	–	–	–	–	Active	–
O=C1C=C[C@]23C(c4ccccc4)=CC(=O)N2[C@H](c2ccc(C(F)(F)F)cc2)C(=O)N[C@@H]3C1	2.1	94 nM	inactive	inactive	inactive	inactive	inactive	inactive	Non-Toxic	inactive	inactive	inactive	inactive	–	–	–
COc1cc(NC2(c3ccc(Br)cc3)C(=O)N(C(C)(C)C)C(=O)/C2=C/c2ccccc2)cc(OC)c1OC (stereo not drawn)	–	5.7 nM	inactive	inactive	inactive	inactive	inactive	inactive	Non-Toxic	inactive	inactive	inactive	inactive	–	–	–
COC1=CC2(C=C(OC)C1=O)C(c1ccccc1)=C(c1ccc(C(F)(F)F)cc1)C(=O)N2C(C(=O)NC1CCCCC1)c1ccc(OC)c(OC)c1OC (stereo not drawn)	–	6.7 nM	inactive	inactive	inactive	inactive	inactive	inactive	Non-Toxic	inactive	inactive	inactive	inactive	–	–	–
COc1ccc(NC2(c3ccccc3)C(=O)N(C(C)(C)C)C(=O)/C2=C/c2ccccc2)cc1 (stereo not drawn)	–	3 nM	inactive	inactive	inactive	inactive	inactive	inactive	Non-Toxic	inactive	inactive	inactive	inactive	–	–	22.9 nM
COc1cc(N2C(=O)C(=Cc3ccccc3)C2(C(=O)NC2CCCCC2)c2ccc(F)cc2)cc(OC)c1OC (stereo not drawn)	1.85	104 nM	inactive	inactive	inactive	inactive	inactive	inactive	Non-Toxic	inactive	inactive	inactive	inactive	–	–	–
O=C1C=C[C@]23C(c4ccccc4)=CC(=O)N2[C@H](c2cc(F)cc(F)c2)C(=O)N[C@@H]3C1	–	10 nM	inactive	inactive	inactive	inactive	inactive	inactive	Non-Toxic	inactive	inactive	inactive	inactive	–	–	–
COc1ccc(NC2(c3cc(F)cc(F)c3)C(=O)N(C3CCCCC3)C(=O)/C2=C/c2ccccc2)cc1 (stereo not drawn)	–	3.8 nM	inactive	inactive	inactive	inactive	inactive	inactive	Non-Toxic	inactive	inactive	inactive	inactive	–	–	–
